Test results from ChEMBL document CHEMBL1909046, “DrugMatrix in vitro pharmacology data”.

Experiments:
[1] = target: Sodium-dependent noradrenaline transporter (Homo sapiens, UniProt P23975); assay: DRUGMATRIX: Norepinephrine Transporter radioligand binding (ligand: [125I] RTI-55); format: cell membranes, MDCK, Membrane; conditions: Not Active = under 50% inhibition at 10 µM; for Ki: read-out: Ki
Substance-P receptor = Substance-P receptor (Homo sapiens, UniProt P25103); format: cell membranes, Membrane; conditions: cho; note: in other assays of this panel Not Active means under 50% inhibition at 10 µM
Substance-P receptor, sequence (P25103 whole entry): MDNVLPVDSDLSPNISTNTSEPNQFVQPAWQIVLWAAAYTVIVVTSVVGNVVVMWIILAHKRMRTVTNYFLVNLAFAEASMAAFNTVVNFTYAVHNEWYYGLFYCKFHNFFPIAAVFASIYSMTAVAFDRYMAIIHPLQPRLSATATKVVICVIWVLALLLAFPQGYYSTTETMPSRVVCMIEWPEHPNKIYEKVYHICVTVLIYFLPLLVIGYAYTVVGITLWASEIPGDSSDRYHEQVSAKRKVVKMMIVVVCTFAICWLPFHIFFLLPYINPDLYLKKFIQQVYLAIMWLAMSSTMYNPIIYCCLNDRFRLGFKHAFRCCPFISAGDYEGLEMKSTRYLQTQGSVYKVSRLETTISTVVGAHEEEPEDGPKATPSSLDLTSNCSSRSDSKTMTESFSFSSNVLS

Endothelin-1 receptor = target: T1, Endothelin-1 receptor (Homo sapiens, UniProt P25101); format: cell membranes, Membrane; conditions: cho-k1; note: in other assays of this panel Not Active means under 50% inhibition at 10 µM
T1 sequence (P25101 whole entry): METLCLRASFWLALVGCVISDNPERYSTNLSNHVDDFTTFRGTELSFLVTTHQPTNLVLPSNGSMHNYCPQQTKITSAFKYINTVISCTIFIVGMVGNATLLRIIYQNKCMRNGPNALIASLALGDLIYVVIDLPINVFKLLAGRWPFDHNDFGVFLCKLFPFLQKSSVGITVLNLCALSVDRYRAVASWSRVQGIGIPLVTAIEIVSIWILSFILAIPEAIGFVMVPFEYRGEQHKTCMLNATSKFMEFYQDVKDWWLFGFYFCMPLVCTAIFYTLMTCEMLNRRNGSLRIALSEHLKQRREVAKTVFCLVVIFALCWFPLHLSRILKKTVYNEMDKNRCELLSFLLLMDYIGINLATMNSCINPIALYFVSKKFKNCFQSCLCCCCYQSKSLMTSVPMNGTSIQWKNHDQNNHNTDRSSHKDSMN

[2] = DRUGMATRIX: Glutamate, NMDA, Phencyclidine radioligand binding (ligand: [3H] TCP); format: cell membranes, Rattus norvegicus, Wistar, Cerebral cortex, Membrane; conditions: Not Active = under 50% inhibition at 10 µM
Melanocortin receptor 5 = Melanocortin receptor 5 (Homo sapiens, UniProt P33032); format: cell membranes, HEK293, Membrane; note: in other assays of this panel Not Active means under 50% inhibition at 10 µM
Melanocortin receptor 5, sequence (P33032 whole entry): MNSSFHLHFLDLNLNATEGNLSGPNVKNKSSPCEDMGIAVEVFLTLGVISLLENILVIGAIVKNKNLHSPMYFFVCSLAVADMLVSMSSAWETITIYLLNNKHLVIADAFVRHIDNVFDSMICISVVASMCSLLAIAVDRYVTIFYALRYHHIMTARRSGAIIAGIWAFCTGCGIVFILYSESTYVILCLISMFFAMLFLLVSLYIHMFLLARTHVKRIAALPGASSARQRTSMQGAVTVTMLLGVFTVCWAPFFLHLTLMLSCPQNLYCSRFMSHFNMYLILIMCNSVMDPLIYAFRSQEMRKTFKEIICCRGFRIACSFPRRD

[3] = target: T2, Neuropeptide Y receptor type 2 (Homo sapiens, UniProt P49146); format: cell membranes, Membrane; conditions: kan-ts; note: in other assays of this panel Not Active means under 50% inhibition at 10 µM
T2 sequence (P49146 whole entry): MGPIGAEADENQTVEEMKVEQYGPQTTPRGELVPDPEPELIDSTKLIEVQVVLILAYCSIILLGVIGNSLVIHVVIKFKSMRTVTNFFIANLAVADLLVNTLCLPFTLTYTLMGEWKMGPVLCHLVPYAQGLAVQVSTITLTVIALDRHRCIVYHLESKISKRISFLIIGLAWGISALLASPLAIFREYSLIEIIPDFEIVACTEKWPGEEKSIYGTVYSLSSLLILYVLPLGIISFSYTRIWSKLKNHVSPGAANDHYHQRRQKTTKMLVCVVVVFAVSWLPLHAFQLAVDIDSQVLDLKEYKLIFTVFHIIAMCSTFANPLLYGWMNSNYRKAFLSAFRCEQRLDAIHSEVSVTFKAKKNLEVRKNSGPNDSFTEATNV

Cytochrome P450 3A4 = Cytochrome P450 3A4 (Homo sapiens, UniProt P08684); conditions: bti-tn-5b1-4; note: in other assays of this panel Not Active means under 50% inhibition at 10 µM
Cytochrome P450 3A4, sequence (P08684 whole entry): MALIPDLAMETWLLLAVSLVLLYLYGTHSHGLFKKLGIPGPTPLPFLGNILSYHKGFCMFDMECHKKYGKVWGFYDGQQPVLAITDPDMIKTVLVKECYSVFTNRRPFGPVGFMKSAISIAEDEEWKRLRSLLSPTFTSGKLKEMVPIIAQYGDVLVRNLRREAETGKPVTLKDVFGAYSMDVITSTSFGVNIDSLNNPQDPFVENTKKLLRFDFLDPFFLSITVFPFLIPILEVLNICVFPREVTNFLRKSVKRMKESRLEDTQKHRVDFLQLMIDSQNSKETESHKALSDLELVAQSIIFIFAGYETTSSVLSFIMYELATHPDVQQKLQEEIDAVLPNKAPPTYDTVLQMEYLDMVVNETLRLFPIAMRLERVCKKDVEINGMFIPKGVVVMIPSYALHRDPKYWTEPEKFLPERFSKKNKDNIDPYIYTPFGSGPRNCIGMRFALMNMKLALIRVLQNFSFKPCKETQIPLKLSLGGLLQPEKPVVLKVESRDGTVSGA

[4] = target: Voltage-gated inwardly rectifying potassium channel KCNH2 (Homo sapiens, UniProt Q12809); conditions: hek293; note: in other assays of this panel Not Active means under 50% inhibition at 10 µM
Voltage-gated inwardly rectifying potassium channel KCNH2, sequence (Q12809 whole entry): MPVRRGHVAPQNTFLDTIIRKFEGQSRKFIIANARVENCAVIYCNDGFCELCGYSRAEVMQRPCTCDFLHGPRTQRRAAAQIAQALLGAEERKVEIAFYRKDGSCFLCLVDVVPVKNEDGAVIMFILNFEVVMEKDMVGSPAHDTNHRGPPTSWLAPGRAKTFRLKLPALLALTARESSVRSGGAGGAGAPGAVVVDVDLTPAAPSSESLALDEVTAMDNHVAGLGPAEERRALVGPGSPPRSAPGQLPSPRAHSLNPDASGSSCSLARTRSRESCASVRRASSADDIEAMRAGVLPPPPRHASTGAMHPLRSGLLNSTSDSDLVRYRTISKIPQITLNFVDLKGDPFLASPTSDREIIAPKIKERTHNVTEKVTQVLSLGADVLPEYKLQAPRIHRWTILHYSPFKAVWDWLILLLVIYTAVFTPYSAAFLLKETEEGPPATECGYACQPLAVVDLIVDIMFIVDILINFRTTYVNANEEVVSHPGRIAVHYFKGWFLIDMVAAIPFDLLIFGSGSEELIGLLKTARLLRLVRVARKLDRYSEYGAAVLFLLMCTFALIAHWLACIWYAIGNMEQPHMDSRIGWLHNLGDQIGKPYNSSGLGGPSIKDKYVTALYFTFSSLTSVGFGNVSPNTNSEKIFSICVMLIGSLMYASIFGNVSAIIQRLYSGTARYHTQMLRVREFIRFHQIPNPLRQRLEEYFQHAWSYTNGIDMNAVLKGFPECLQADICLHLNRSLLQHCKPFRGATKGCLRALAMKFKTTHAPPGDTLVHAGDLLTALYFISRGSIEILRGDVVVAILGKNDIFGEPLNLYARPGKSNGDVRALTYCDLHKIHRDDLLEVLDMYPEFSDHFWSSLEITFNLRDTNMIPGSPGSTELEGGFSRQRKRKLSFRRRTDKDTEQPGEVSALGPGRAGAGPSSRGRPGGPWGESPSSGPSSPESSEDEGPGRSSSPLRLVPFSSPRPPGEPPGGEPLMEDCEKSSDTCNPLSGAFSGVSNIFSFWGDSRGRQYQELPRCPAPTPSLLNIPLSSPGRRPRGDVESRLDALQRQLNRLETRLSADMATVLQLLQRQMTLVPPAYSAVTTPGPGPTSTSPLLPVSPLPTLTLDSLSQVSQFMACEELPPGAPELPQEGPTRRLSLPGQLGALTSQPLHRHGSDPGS

Sodium-dependent noradrenaline transporter, sequence (P23975 whole entry): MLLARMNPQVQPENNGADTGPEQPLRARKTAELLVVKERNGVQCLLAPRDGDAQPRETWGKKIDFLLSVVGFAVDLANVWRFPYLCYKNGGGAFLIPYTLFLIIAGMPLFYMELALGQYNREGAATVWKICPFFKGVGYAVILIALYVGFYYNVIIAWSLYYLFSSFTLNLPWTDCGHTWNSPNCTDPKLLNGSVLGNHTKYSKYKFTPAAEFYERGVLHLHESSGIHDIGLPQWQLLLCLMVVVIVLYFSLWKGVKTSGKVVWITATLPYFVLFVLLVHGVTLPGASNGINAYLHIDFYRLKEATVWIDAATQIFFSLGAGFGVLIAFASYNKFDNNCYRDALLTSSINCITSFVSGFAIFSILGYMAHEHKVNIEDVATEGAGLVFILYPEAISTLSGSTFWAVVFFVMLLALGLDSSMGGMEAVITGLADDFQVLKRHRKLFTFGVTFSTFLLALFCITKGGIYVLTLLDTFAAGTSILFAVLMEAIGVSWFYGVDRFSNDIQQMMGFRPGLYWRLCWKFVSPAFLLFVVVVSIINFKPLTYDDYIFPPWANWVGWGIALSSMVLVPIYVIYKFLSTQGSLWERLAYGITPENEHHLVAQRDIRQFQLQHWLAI

What does the source list for `CC1(COc2ccc(CC3SC(=O)NC3=O)cc2)CCCCC1` (stereo not drawn) [CIGLITAZONE]?
IC50 ([1]; read-out: IC50): 2.22 µM; Ki [1]: 2.2 µM; IC50 (Substance-P receptor): Not Active; IC50 (Endothelin-1 receptor): Not Active; IC50 [2]: Not Active; Ki [2]: Not Active; IC50 (Melanocortin receptor 5; read-out: IC50): 28.6 µM; Ki (Melanocortin receptor 5; read-out: Ki): 26.8 µM; IC50 [3]: Not Active; IC50 (Cytochrome P450 3A4): Not Active; Ki (Cytochrome P450 3A4): Not Active; IC50 [4]: Not Active; Ki [4]: Not Active

What does the source list for `Nc1nc(F)nc2c1ncn2[C@@H]1O[C@H](CO)[C@@H](O)[C@@H]1O` [FLUDARABINE]?
IC50 ([1]; mdck): Not Active; IC50 (Substance-P receptor): Not Active; IC50 (Endothelin-1 receptor): Not Active; IC50 [2]: Not Active; Ki [2]: Not Active; IC50 (Melanocortin receptor 5; hek293): Not Active; IC50 [3]: Not Active; IC50 (Cytochrome P450 3A4): Not Active; Ki (Cytochrome P450 3A4): Not Active; IC50 [4]: Not Active; Ki [4]: Not Active

Which IC50 ([1]; mdck) does the source give for `NC(=O)NC(=O)Cc1ccccc1` [PHENACEMIDE] here?
The IC50 was “Not Active”.

And the IC50 (Substance-P receptor)?
Its IC50 is “Not Active”.

What about the IC50 (Endothelin-1 receptor) of the same compound?
Its IC50 is “Not Active”.

What about the IC50 [2] of the same compound?
Its IC50 is “Not Active”.

What about the Ki [2] of the same compound?
Its Ki is “Not Active”.

And the IC50 (Melanocortin receptor 5; hek293)?
The IC50 was “Not Active”.

What about the IC50 [3] of the same compound?
Its IC50 is “Not Active”.

What about the IC50 (Cytochrome P450 3A4) of the same compound?
Its IC50 is “Not Active”.

And the Ki (Cytochrome P450 3A4)?
Its Ki is “Not Active”.

And the IC50 [4]?
Its IC50 is “Not Active”.

What about the Ki [4] of the same compound?
Its Ki is “Not Active”.

What does the source list for `Nc1ccc(C(=O)O)c(O)c1` [AMINOSALICYLIC ACID]?
IC50 ([1]; mdck): Not Active; IC50 (Substance-P receptor): Not Active; IC50 (Endothelin-1 receptor): Not Active; IC50 [2]: Not Active; Ki [2]: Not Active; IC50 (Melanocortin receptor 5; hek293): Not Active; IC50 [3]: Not Active; IC50 (Cytochrome P450 3A4): Not Active; Ki (Cytochrome P450 3A4): Not Active; IC50 [4]: Not Active; Ki [4]: Not Active

With `O=c1[nH]cnc2c1ncn2[C@H]1CC[C@@H](CO)O1` [DIDANOSINE] as the compound, how does the IC50 ([1]; mdck) read?
Its IC50 is “Not Active”.

What about the IC50 (Substance-P receptor) of the same compound?
Its IC50 is “Not Active”.

What about the IC50 (Endothelin-1 receptor) of the same compound?
Its IC50 is “Not Active”.

What about the IC50 [2] of the same compound?
The IC50 was “Not Active”.

What about the Ki [2] of the same compound?
Its Ki is “Not Active”.

What about the IC50 (Melanocortin receptor 5; hek293) of the same compound?
The IC50 was “Not Active”.

What about the IC50 [3] of the same compound?
Its IC50 is “Not Active”.

And the IC50 (Cytochrome P450 3A4)?
The IC50 was “Not Active”.

What about the Ki (Cytochrome P450 3A4) of the same compound?
The Ki was “Not Active”.

What about the IC50 [4] of the same compound?
Its IC50 is “Not Active”.

And the Ki [4]?
The Ki was “Not Active”.

Which results are given for `NC(=O)CN1CCCC1=O`?
IC50 ([1]; mdck): Not Active; IC50 (Substance-P receptor): Not Active; IC50 (Endothelin-1 receptor): Not Active; IC50 [2]: Not Active; Ki [2]: Not Active; IC50 (Melanocortin receptor 5; hek293): Not Active; IC50 [3]: Not Active; IC50 (Cytochrome P450 3A4): Not Active; Ki (Cytochrome P450 3A4): Not Active; IC50 [4]: Not Active; Ki [4]: Not Active

Which IC50 ([1]; read-out: IC50) does the source give for `Clc1cc(Cl)c(OCC#CI)cc1Cl` [HALOPROGIN] here?
The IC50 was 2.77 µM.

And the Ki [1]?
The Ki was 2.75 µM.

And the IC50 (Substance-P receptor)?
The IC50 was “Not Active”.

And the IC50 (Endothelin-1 receptor)?
Its IC50 is “Not Active”.

And the IC50 [2]?
Its IC50 is “Not Active”.

And the Ki [2]?
The Ki was “Not Active”.

What about the IC50 (Melanocortin receptor 5; hek293) of the same compound?
Its IC50 is “Not Active”.

And the IC50 [3]?
Its IC50 is “Not Active”.

What about the IC50 (Cytochrome P450 3A4) of the same compound?
The IC50 was “Not Active”.

And the Ki (Cytochrome P450 3A4)?
Its Ki is “Not Active”.

What about the IC50 [4] of the same compound?
The IC50 was “Not Active”.

And the Ki [4]?
The Ki was “Not Active”.

For `O=C(NCCN1CCOCC1)c1ccc(Cl)cc1` [MOCLOBEMIDE], which IC50 ([1]; mdck) is on record?
Its IC50 is “Not Active”.

What about the IC50 (Substance-P receptor) of the same compound?
The IC50 was “Not Active”.

And the IC50 (Endothelin-1 receptor)?
The IC50 was “Not Active”.

And the IC50 [2]?
Its IC50 is “Not Active”.

What about the Ki [2] of the same compound?
Its Ki is “Not Active”.

And the IC50 (Melanocortin receptor 5; hek293)?
The IC50 was “Not Active”.

What about the IC50 [3] of the same compound?
Its IC50 is “Not Active”.

And the IC50 (Cytochrome P450 3A4)?
The IC50 was “Not Active”.

And the Ki (Cytochrome P450 3A4)?
The Ki was “Not Active”.

What about the IC50 [4] of the same compound?
The IC50 was “Not Active”.

And the Ki [4]?
Its Ki is “Not Active”.

For `Cc1c(N)nc([C@H](CC(N)=O)NC[C@H](N)C(N)=O)nc1C(=O)N[C@H](C(=O)N[C@H](C)[C@@H](O)[C@H](C)C(=O)N[C@H](C(=O)NCCc1nc(-c2nc(C(=O)NCCC[S+](C)C)cs2)cs1)[C@@H](C)O)[C@@H](O[C@@H]1O[C@@H](CO)[C@@H](O)[C@H](O)[C@@H]1O[C@H]1O[C@H](CO)[C@@H](O)[C@H](OC(N)=O)[C@@H]1O)c1c[nH]cn1.[Br-]` [BLEOMYCIN A2], which IC50 ([1]; mdck) is on record?
Its IC50 is “Not Active”.

What about the IC50 (Substance-P receptor) of the same compound?
The IC50 was “Not Active”.

And the IC50 (Endothelin-1 receptor)?
The IC50 was “Not Active”.

And the IC50 [2]?
The IC50 was “Not Active”.

And the Ki [2]?
The Ki was “Not Active”.

What about the IC50 (Melanocortin receptor 5; hek293) of the same compound?
The IC50 was “Not Active”.

What about the IC50 [3] of the same compound?
The IC50 was “Not Active”.

What about the IC50 (Cytochrome P450 3A4) of the same compound?
The IC50 was “Not Active”.

What about the Ki (Cytochrome P450 3A4) of the same compound?
Its Ki is “Not Active”.

And the IC50 [4]?
The IC50 was “Not Active”.

What about the Ki [4] of the same compound?
The Ki was “Not Active”.

Which results are given for `CC(C)Cc1ccc([C@H](C)C(=O)O)cc1` [DEXIBUPROFEN]?
IC50 ([1]; mdck): Not Active; IC50 (Substance-P receptor): Not Active; IC50 (Endothelin-1 receptor): Not Active; IC50 [2]: Not Active; Ki [2]: Not Active; IC50 (Melanocortin receptor 5; hek293): Not Active; IC50 [3]: Not Active; IC50 (Cytochrome P450 3A4): Not Active; Ki (Cytochrome P450 3A4): Not Active; IC50 [4]: Not Active; Ki [4]: Not Active
